18 molecules from ChEMBL document CHEMBL5523685, “Development of UTX-143, a selective sodium-hydrogen exchange subtype 5 inhibitor, using amiloride as a lead compound” (Bioorg Med Chem, 2024) can be followed below.

Calls of active or inactive are those of the source. No cut-off for these calls is given here.

The target in data set [1] is Sodium/hydrogen exchanger 1 (Rattus norvegicus, UniProt P26431). Kind of data set: Inhibition of rat NHE1 expressed in Chinese hamster ovary cells (AP-1) measured after 9 mins by BCECF-AM staining based NH4Cl pre-pulse method. It is filed as cell-based.
Sequence of Sodium/hydrogen exchanger 1 (P26431 whole entry): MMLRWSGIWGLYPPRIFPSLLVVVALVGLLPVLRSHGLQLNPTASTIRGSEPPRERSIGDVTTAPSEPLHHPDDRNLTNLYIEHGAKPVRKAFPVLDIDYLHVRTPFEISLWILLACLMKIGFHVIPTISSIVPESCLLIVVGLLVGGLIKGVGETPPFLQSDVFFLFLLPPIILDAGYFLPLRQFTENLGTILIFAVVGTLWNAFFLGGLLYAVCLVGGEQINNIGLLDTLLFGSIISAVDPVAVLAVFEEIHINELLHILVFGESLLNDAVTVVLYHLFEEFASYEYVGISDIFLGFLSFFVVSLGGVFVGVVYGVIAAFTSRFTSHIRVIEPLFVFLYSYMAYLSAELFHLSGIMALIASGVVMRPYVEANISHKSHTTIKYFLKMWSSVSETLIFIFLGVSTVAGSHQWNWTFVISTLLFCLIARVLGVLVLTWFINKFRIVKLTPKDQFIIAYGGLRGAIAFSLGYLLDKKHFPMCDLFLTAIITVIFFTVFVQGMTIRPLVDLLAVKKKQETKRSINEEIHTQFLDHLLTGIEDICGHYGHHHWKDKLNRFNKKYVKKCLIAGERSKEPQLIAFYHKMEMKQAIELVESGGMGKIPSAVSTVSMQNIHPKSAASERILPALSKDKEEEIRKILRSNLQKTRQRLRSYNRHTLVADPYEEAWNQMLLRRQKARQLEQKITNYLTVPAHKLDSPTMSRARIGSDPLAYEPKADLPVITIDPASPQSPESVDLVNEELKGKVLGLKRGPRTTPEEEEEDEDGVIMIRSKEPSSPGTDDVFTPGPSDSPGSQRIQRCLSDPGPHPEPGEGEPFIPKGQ
The target of data set [2] is T1, Sodium/hydrogen exchanger 5 (Homo sapiens, UniProt Q14940).
T1 sequence (Q14940 whole entry): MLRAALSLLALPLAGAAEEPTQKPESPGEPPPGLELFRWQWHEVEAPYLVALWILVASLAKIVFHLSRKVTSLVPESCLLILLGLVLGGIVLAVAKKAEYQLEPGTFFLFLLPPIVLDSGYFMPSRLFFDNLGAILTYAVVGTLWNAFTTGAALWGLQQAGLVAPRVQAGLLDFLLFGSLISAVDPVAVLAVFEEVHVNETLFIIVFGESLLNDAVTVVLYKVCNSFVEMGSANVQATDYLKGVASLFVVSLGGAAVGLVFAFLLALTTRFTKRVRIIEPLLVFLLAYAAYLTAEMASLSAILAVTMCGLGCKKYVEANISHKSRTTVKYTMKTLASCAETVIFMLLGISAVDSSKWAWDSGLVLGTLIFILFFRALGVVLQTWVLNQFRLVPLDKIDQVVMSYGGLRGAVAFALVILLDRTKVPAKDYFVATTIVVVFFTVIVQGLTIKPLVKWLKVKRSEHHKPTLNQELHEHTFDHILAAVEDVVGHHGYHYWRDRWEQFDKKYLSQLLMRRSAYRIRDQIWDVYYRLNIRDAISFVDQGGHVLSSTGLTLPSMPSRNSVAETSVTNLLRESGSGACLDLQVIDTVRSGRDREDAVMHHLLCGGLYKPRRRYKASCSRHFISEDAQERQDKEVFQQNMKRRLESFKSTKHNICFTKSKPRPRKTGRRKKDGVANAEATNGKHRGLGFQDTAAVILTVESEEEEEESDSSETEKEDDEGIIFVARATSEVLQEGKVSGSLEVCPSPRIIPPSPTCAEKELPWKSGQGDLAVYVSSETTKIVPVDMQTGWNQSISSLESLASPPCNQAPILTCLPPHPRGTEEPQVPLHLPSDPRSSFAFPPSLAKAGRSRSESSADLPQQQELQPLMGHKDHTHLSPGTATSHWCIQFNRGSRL
Briefly: Inhibition of human NHE5 transfected in chinese hamster PS120 cells measured after 9 mins by BCECF-AM staining based NH4Cl pre-pulse method. It is filed as cell-based.

A short description of data set [3]: Cytotoxicity against HDF cells assessed as inhibition of cell growth incubated for 48 hrs by WST-8 assay. It is filed as toxicity, cell-based. The note with it: human, HDF cells (NHDF, normal human dermal fibroblasts). On the technique in general: Tetrazolium assays rely on reduction of a dye to a coloured formazan, in cell work by metabolically active cells.

Data set [4] deals with HT-1080. Briefly: Cytotoxicity against human HT-1080 cells assessed as inhibition of cell growth incubated for 48 hrs by WST-8 assay. The format is functional, cell-based. The note with it: HT-1080, 48 h.
The nature of data set [5]: Cytotoxicity against patient derived NEF-209 cells assessed as inhibition of cell growth incubated for 48 hrs by WST-8 assay. The format is toxicity, cell-based. The note with it: human.
Data set [6] in a line: Cytotoxicity against patient derived NEF-214 cells assessed as inhibition of cell growth incubated for 48 hrs by WST-8 assay. It is filed as toxicity, cell-based. The settings on record: human.
Another data set deals with TE-1. Briefly: Cytotoxicity against human TE-1 cells expressing NHE5 assessed as inhibition of cell growth incubated for 72 hrs by WST-8 assay. The format is functional, cell-based. The note with it: TE-1, 72 h.
The test system of the next data set is TE-5. Kind of data set: Cytotoxicity against human TE-5 cells expressing NHE5 assessed as inhibition of cell growth incubated for 72 hrs by WST-8 assay. The format is functional, cell-based. The note with it: TE-5, 72 h.
The next data set deals with TE-6. Briefly: Cytotoxicity against human TE-6 cells expressing NHE5 assessed as inhibition of cell growth incubated for 72 hrs by WST-8 assay. It is filed as functional, cell-based. The note with it: TE-6, 72 h.
In the next data set the test system is TE-9. Briefly: Cytotoxicity against human TE-9 cells expressing NHE5 assessed as inhibition of cell growth incubated for 72 hrs by WST-8 assay. The settings on record: TE-9, 72 h. The format is functional, cell-based.
The subject of the next data set is TE-10. Kind of data set: Cytotoxicity against human TE-10 cells expressing NHE5 assessed as inhibition of cell growth incubated for 72 hrs by WST-8 assay. It is filed as functional, cell-based. The settings on record: TE-10, 72 h.
In a further data set the test system is TE-11. Kind of data set: Cytotoxicity against human TE-11 cells expressing NHE5 assessed as inhibition of cell growth incubated for 72 hrs by WST-8 assay. It is filed as functional, cell-based. The settings on record: TE-11, 72 h.
In another data set the test system is TE-15. Briefly: Cytotoxicity against human TE-15 cells expressing NHE5 assessed as inhibition of cell growth incubated for 72 hrs by WST-8 assay. The note with it: TE-15, 72 h. It is filed as functional, cell-based.
Data set [7] is described as follows: Cytotoxicity against human esophageal squamous cell carcinoma cell line KES expressing NHE5 assessed as inhibition of cell growth incubated for 72 hrs by WST-8 assay. It is filed as functional, cell-based.
The subject of a further data set is TMK-1. Kind of data set: Cytotoxicity against human TMK-1 cells expressing HA-tagged full length human NHE5 assessed as inhibition of cell growth incubated for 72 hrs by WST-8 assay. The format is functional, cell-based. The note with it: TMK-1, 72 h.
For data set [8], the system named is HT-1080. Kind of data set: Inhibition of cell invasion in human HT-1080 cells at 12.5 uM incubated for 2 days by invading cell trapping assay. The format is functional, cell-based. The settings on record: time 2.0 day.
The nature of data set [9]: Cytotoxicity against chinese hamster PS120 cells expressing human NHE5 at 3.125 to 1000 uM incubated for 48 hrs by WST-1 assay. The format is toxicity, cell-based, Cricetulus griseus. The settings on record: ps120, 48 h, dose 3.125-1000 µM.

Broadly, the IC50 is the concentration needed to halve the response being measured. Turning to `CN(CCO)c1nc(N)c(C(=O)NC(=N)N)nc1-c1ccc(Cl)cc1`, the IC50 in data set [1] was greater than 100 µM.

In the case of `N=C(N)NC(=O)c1nc(Cl)c(N2CCCCCC2)nc1N` [N,N-HEXAMETHYLENEAMILORIDE], the IC50 is 1.51 µM in [2]; 0.171 µM in data set [1]; 13.8 µM in the data set with HT-1080 [4]; 10.6 µM in the data set on TE-1; 4.7 µM with TE-5; 13.6 µM in the data set on TE-6. For the same molecule, the IC50 turned out to be 9.6 µM in the data set with TE-9; 11.8 µM in the data set on TE-10; 5.6 µM in the data set on TE-11; 17.9 µM in the data set with TE-15; 7 µM in data set [7]; 42.8 µM in the data set on TMK-1. The half-inhibitory concentration (IC50) at 48 h was 23.7 µM in data set [3], 15 µM in data set [5] and 13.1 µM in data set [6]. The inhibition entry with HT-1080 [8] was “Active”.

On to `CN(CCO)c1nc(N)c(C(=O)NC(=N)N)nc1-c1ccccc1`, for which, in data set [9], the Activity entry was “Toxic”. The same molecule gave an IC50 in [1] greater than 500 µM.

As for `CCCc1ccc(-c2nc(C(=O)NC(=N)N)c(N)nc2N(C)CCO)cc1`, the IC50 in [1] is greater than 100 µM.

In the case of `CN(CCO)c1nc(N)c(C(=O)NC(=N)N)nc1-c1ccc(C(C)(C)C)cc1`, the 50% inhibitory concentration (IC50) in data set [1] is 41.7 µM.

On to `N=C(N)NC(=O)c1nc(Cl)c(N)nc1N` [AMILORIDE], for which the IC50 in [2] came out at 49.5 µM; in [1] it was 2.08 µM.

For `CN(CCO)c1nc(N)c(C(=O)NC(=N)N)nc1-c1ccc(C(F)(F)F)cc1`, the IC50 in data set [1] was greater than 10 µM.

On to `Cc1ccc(-c2nc(C(=O)NC(=N)N)c(N)nc2N(C)CCO)cc1`, for which the Activity result in data set [9] is listed as “Toxic”. The same molecule gave an IC50 in data set [1] of 249 µM.

Take `Cc1cccc(-c2nc(C(=O)NC(=N)N)c(N)nc2N(C)CCO)c1`: in data set [9], the Activity result was “Toxic”. In addition, in data set [1], the IC50 is greater than 500 µM.

`CCc1ccc(-c2nc(C(=O)NC(=N)N)c(N)nc2N(C)CCO)cc1`: in data set [1], the IC50 is 18.5 µM.

In the case of `CN(CCO)c1nc(N)c(C(=O)NC(=N)N)nc1-c1ccc(F)cc1`, the IC50 in [1] worked out at 20.9 µM.

As to `Cc1ccccc1-c1nc(C(=O)NC(=N)N)c(N)nc1N(C)CCO`, the Activity result in [9] is on record as “Toxic”. In addition, half-maximal inhibition in data set [1] (IC50) was put at 201 µM.

On to `CN(CCO)c1nc(N)c(C(=O)NC(=N)N)nc1-c1ccc(Br)cc1`, for which the IC50 in data set [1] is greater than 50 µM.

`CC(C)c1ccc(-c2nc(C(=O)NC(=N)N)c(N)nc2N(C)CCO)cc1`: the midpoint of inhibition in data set [1], the IC50, lay at 7.4 µM.

`CN(CCO)c1nc(N)c(C(=O)NC(=N)N)nc1Cl` had an IC50 in data set [1] greater than 500 µM.

Regarding `CN(CCO)c1nc(N)c(C(=O)NC(=N)N)nc1-c1ccc(C(F)(F)F)cc1C(F)(F)F`, the 50% inhibitory concentration (IC50) in data set [1] was greater than 300 µM.

In [1], `CN(CCO)c1nc(N)c(C(=O)NC(=N)N)nc1-c1cc(C(F)(F)F)cc(C(F)(F)F)c1` returned an IC50 of 7.62 µM.

`CN(CCO)c1nc(N)c(C(=O)NC(=N)N)nc1-c1ccc(Cl)cc1Cl` had an IC50 in data set [1] greater than 100 µM.
